Values of other authors in EP2899264B1, “EMULSION FOR MICROBIAL GROWTH, METHOD FOR GROWING MICROORGANISMS BY USING SAID EMULSION, AND METHOD FOR PRODUCING MICROBIAL METABOLITE” (Kaneka Corporation, priority 2012, dated 2014).

Assays:
[1] = test system: microorganisms; conditions: used as emulsifier
[2] = for concentration at which the acid aggregates: in water
[3] = test system: Aeromonas hydrophila; conditions: sole carbon source
[4] = test system: Ralstonia eutropha (currently classified as Cupriavidus necator); conditions: sole carbon source

## CCCCCCCCCCCCOS(=O)(=O)[O-].[Na+] [SDS]
[1]
  effect on growth of microorganisms: inhibit growth of microorganisms

## CCCCCCCCCCCC(=O)O [lauric acid]
[2]
  water solubility: ≤ 100 µg/mL
[3]
  dry cell weight: about 8 g/L
[4]
  PHA productivity: ≤ 1 g/L

## CCCCCCCCCCCCCC(=O)O [myristic acid]
[4]
  PHA productivity: ≤ 1 g/L

## CCCCCCCCCCCCCCCC(=O)O [palmitic acid]
[2]
  concentration at which the acid aggregates: ≤ 1000 nM

## CCCCCCCCCCCCCCCCCC(=O)O [stearic acid]
[2]
  concentration at which the acid aggregates: ≤ 1000 nM

## Triton X-100
[1]
  effect on growth of microorganisms: inhibit growth of microorganisms
